Data taken from ChEMBL document CHEMBL5291721, “A preclinical secondary pharmacology resource illuminates target-adverse drug reaction associations of marketed drugs” (Nat Commun, 2023).

Key:
Melanocortin receptor 3 = Melanocortin receptor 3 (Homo sapiens, UniProt P41968)
[1] = target: T1, Gamma-aminobutyric acid receptor subunit alpha-1 (Rattus norvegicus, UniProt P62813); format: functional
[2] = target: T2, Gastrin/cholecystokinin type B receptor (Homo sapiens, UniProt P32239)
T2 sequence (P32239 whole entry): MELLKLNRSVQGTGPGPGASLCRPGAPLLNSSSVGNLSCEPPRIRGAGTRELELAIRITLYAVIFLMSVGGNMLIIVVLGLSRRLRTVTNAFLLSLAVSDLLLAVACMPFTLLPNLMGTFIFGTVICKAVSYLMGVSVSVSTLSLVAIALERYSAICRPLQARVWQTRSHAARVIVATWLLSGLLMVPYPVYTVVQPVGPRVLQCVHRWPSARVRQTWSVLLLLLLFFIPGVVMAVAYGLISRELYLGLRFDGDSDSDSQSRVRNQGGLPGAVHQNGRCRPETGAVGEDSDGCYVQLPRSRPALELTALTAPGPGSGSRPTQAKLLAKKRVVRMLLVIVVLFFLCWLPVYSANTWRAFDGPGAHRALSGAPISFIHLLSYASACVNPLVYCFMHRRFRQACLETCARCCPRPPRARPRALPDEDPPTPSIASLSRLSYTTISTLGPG

D(3) dopamine receptor = D(3) dopamine receptor (Homo sapiens, UniProt P35462)
B2 bradykinin receptor = target: T3, B2 bradykinin receptor (Homo sapiens, UniProt P30411)
T3 sequence (P30411 whole entry): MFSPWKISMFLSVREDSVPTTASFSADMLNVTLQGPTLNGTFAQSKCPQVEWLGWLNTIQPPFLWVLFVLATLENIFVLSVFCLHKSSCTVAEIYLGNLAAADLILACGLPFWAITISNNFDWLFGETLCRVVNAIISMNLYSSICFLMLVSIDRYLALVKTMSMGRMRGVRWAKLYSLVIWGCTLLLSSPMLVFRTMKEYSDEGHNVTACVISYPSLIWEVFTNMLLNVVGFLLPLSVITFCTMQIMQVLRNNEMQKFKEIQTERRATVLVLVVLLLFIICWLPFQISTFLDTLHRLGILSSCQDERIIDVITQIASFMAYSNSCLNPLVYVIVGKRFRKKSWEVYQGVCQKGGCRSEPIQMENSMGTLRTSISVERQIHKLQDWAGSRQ

[3] = target: T4, Alpha-2A adrenergic receptor (Homo sapiens, UniProt P08913); format: functional, cell-based
T4 sequence (P08913 whole entry): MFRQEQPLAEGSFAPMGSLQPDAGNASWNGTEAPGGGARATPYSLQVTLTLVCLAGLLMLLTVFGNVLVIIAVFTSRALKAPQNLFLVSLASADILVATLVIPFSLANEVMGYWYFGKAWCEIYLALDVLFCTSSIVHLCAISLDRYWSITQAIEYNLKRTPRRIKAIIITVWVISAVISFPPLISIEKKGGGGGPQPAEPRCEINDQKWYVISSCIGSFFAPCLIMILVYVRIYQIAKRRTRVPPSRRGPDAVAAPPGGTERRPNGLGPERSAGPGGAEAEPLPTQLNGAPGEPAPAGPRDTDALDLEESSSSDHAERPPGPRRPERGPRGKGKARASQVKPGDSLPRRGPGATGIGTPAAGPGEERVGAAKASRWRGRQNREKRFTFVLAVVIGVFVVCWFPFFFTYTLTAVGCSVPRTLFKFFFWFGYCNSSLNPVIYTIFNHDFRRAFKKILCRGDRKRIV

[4] = target: 3',5'-cyclic-AMP phosphodiesterase 4D (Homo sapiens, UniProt Q08499); format: functional
[5] = target: Sodium-dependent dopamine transporter (Homo sapiens, UniProt Q01959)
[6] = target: T1, Gamma-aminobutyric acid receptor subunit alpha-1

Measured: AC50
Note: assay procedure not described here.

T1 sequence (P62813 whole entry): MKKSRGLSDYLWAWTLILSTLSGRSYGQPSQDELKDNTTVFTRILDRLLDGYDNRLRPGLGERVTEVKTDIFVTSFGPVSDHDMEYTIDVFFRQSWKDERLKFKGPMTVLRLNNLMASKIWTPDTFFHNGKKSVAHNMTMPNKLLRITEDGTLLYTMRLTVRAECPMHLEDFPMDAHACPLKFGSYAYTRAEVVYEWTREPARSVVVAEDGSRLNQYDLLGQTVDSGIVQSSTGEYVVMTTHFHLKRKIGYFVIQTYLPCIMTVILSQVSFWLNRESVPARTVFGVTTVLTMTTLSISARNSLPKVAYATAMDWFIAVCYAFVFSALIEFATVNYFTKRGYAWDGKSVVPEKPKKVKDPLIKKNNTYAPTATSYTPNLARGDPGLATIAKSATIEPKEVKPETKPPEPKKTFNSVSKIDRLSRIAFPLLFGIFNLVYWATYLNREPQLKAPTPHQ
Sodium-dependent dopamine transporter, sequence (Q01959 whole entry): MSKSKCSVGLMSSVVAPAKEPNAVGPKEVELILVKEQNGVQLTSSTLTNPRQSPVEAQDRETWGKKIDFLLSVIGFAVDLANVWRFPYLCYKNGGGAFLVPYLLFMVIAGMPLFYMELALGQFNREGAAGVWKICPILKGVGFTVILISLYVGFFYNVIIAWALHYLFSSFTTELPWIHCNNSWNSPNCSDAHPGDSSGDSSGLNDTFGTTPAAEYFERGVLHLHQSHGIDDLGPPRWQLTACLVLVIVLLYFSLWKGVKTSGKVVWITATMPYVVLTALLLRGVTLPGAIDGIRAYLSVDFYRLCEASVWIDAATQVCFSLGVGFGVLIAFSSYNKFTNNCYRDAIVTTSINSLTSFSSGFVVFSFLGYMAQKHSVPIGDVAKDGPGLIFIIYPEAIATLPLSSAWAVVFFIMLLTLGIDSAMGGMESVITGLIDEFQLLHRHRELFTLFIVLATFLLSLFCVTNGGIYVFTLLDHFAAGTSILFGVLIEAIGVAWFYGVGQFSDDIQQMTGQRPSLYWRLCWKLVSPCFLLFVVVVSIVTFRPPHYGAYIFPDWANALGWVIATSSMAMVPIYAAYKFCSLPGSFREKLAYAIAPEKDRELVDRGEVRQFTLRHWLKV
3',5'-cyclic-AMP phosphodiesterase 4D, sequence (Q08499 whole entry): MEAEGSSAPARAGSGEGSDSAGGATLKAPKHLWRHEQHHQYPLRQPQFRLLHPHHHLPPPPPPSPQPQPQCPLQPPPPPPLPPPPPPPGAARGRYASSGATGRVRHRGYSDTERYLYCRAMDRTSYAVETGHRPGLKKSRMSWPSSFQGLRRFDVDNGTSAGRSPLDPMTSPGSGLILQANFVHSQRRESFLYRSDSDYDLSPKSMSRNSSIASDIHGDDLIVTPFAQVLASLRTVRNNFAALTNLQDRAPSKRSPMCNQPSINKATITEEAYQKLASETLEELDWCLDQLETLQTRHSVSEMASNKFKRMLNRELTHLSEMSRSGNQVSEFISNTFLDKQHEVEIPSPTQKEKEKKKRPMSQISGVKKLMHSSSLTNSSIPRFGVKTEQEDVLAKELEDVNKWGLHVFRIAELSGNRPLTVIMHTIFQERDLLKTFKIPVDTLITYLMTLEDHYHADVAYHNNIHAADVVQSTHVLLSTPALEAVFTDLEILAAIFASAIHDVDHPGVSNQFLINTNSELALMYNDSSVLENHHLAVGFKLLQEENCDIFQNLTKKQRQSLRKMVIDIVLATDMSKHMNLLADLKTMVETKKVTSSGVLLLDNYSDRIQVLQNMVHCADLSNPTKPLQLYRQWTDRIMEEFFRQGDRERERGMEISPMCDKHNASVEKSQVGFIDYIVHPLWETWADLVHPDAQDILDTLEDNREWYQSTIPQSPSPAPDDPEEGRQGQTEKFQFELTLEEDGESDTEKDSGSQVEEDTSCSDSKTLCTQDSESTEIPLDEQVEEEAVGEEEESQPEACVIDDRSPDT
Melanocortin receptor 3, sequence (P41968 whole entry): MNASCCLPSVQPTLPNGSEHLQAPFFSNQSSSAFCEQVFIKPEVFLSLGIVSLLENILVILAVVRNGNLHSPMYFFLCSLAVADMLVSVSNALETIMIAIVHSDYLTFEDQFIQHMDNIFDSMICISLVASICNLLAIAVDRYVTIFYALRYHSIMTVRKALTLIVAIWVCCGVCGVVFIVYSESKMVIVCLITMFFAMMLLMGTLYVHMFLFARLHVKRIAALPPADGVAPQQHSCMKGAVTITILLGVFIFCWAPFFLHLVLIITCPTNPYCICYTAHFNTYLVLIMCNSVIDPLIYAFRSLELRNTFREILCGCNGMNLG
D(3) dopamine receptor, sequence (P35462 whole entry): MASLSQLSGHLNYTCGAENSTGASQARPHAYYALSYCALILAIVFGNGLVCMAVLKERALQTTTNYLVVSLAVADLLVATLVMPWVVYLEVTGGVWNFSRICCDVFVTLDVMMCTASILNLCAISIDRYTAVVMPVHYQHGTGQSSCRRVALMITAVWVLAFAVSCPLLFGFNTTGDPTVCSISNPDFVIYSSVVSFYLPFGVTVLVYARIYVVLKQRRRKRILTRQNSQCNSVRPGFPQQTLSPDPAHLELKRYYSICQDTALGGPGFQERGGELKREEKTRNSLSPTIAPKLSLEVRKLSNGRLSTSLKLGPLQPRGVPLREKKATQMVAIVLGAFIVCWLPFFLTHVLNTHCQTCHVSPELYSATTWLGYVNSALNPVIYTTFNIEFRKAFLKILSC

HYDROXOCOBALAMIN
not listed: [6]
> 30 µM: all other assays above

Nc1ccc(S(N)(=O)=O)cc1 [SULFANILAMIDE]
> 30 µM: [6]
